Reference: EP0082648A2, “Cephalosporin derivatives” (IMPERIAL CHEMICAL INDUSTRIES PLC, priority 1981, dated 1983)
In brackets after ≈: the same amount, converted by molar mass.

How the values were obtained:
Staph. aureus = experiment: In vitro agar dilution MIC test, Jewell and Pearmain agar medium; assay type: cell-based; conditions: Staphylococcus aureus, Code A6, inoculum size ~10^5 CFU
Source text: (§1) The results set out in the following Table are illustrative of the biological activity of one of the preferred compounds of the present invention, that of Example 4. The following results are those obtained on a standard in vitro test system using Jewell and Pearmain agar medium. The antibacterial activity is described in terms of the minimum inhibitory concentration (MIC) determined by agar - dilution technique with an inoculum size of ~10^5 CFU.

Proteus mirabilis = experiment: as above; assay type: cell-based; conditions: Code A18, inoculum size ~10^5 CFU
Source text: as §1

Ps. aeruginosa = experiment: as above; assay type: cell-based; conditions: Pseudomonas aeruginosa, Code A21, inoculum size ~10^5 CFU
Source text: as §1

Strep. pyogenes = experiment: as above; assay type: cell-based; conditions: Streptococcus pyogenes, Code A1, inoculum size ~10^5 CFU
Source text: as §1

K. aerogenes = experiment: as above; assay type: cell-based; conditions: Klebsiella aerogenes, Code A10, inoculum size ~10^5 CFU
Source text: as §1

E. coli = experiment: as above; assay type: cell-based; conditions: Escherichia coli, Code A8, inoculum size ~10^5 CFU
Source text: as §1

Salmonella dublin = experiment: as above; assay type: cell-based; conditions: Salmonella enterica, Code A20, inoculum size ~10^5 CFU
Source text: as §1

Ent. cloacae = experiment: as above; assay type: cell-based; conditions: Enterobacter cloacae, Code A13, inoculum size ~10^5 CFU
Source text: as §1

Serratia marescens = experiment: as above; assay type: cell-based; conditions: Code A16, inoculum size ~10^5 CFU
Source text: as §1

[1] = Toxicity observation after subcutaneous administration to mice; assay type: in vivo; conditions: dose four times the minimum effective dose which protected 50% of the mice against infection with Salmonella dublin
Procedure: Thus the compound 7-(4-[3-(3-cyano-2-methylisothioureido)propyl]imidazol-2-yl)amino-3-(1-methyl-lH-tetrazol-5-yl)thiomethylceph-3-em-4-carboxylic acid (Example 4) was administered subcutaneously to mice at a dose four times that of the minimum effective dose which protected 50% of the mice against infection with Salmonella dublin.

## CSC(=NC#N)NCCCc1c[nH]c(NC2C(=O)N3C(C(=O)O)=C(CSc4nnnn4C)CS[C@H]23)n1 (stereo partly shown) [Example 4, 7-(4-[3-(3-cyano-2-methylisothioureido)propyl]imidazol-2-yl)amino-3-(1-methyl-1H-tetrazol-5-yl)thiomethylceph-3-em-4-carboxylic acid]
Staph. aureus
  MIC: 16 µg/mL (≈ 29.1 µM)
Proteus mirabilis
  MIC: 1 µg/mL (≈ 1.82 µM)
Ps. aeruginosa
  MIC: > 128 µg/mL
Strep. pyogenes
  MIC: 8 µg/mL (≈ 14.6 µM)
K. aerogenes
  MIC: 0.12 µg/mL (≈ 0.218 µM)
E. coli
  MIC: 0.06 µg/mL (≈ 0.109 µM)
Salmonella dublin
  MIC: 0.03 µg/mL (≈ 0.0546 µM)
Ent. cloacae
  MIC: 32 µg/mL (≈ 58.2 µM)
Serratia marescens
  MIC: 4 µg/mL (≈ 7.28 µM)
[1]
  overt toxic symptoms or side effects: No overt toxic symptoms or side effects attributable to the administered compound were noted
